Test: clinical
Details: female, human, in vivo, sc, 20 ug
Description: The microprojection array described herein was used to administer transdermally hPTH (1-34) to healthy human subjects. As a comparator, hPTH (1-34) was also administered subcutaneously to a healthy group of human subjects.
In this study, a microprojection array was prepared as detailed in Example 9 and inserted into an applicator-array assembly to form a transdermal delivery system, as described in Example 10. […] The delivery system was designed to deliver a systemic dose of hPTH (1-34) across the stratum corneum barrier layer of the skin upon activation of the applicator to deploy an array of microstructures causing the array of microstructures to penetrate the stratum corneum. In this study, two dose levels were administered via the transdermal delivery system, 32 μg hPTH (1-34) and 64 μg hPTH (1-34) (32 μg hPTH (1-34)×2). Subjects received these doses by applying the transdermal microneedle delivery system MicroCor® device containing the indicated amount of hPTH in the distal tips of the microneedles in the array to an abdominal site, and leaving the device in place for five (5) minutes. The comparator treatment (the commercial hPTH product known as Forteo®) was subcutaneously administered via injection into the abdominal wall at a dose of 20 μg. Blood samples were drawn at designated times and analyzed for hPTH concentration. […]

CC[C@H](C)[C@H](NC(=O)[C@H](CCC(=O)O)NC(=O)[C@H](CO)NC(=O)[C@@H](NC(=O)[C@@H](N)CO)C(C)C)C(=O)N[C@@H](CCC(N)=O)C(=O)N[C@@H](CC(C)C)C(=O)N[C@@H](CCSC)C(=O)N[C@@H](Cc1cnc[nH]1)C(=O)N[C@@H](CC(N)=O)C(=O)N[C@@H](CC(C)C)C(=O)NCC(=O)N[C@@H](CCCCN)C(=O)N[C@@H](Cc1cnc[nH]1)C(=O)N[C@@H](CC(C)C)C(=O)N[C@@H](CC(N)=O)C(=O)N[C@@H](CO)C(=O)N[C@@H](CCSC)C(=O)N[C@@H](CCC(=O)O)C(=O)N[C@@H](CCCN=C(N)N)C(=O)N[C@H](C(=O)N[C@@H](CCC(=O)O)C(=O)N[C@@H](Cc1c[nH]c2ccccc12)C(=O)N[C@@H](CC(C)C)C(=O)N[C@@H](CCCN=C(N)N)C(=O)N[C@@H](CCCCN)C(=O)N[C@@H](CCCCN)C(=O)N[C@@H](CC(C)C)C(=O)N[C@@H](CCC(N)=O)C(=O)N[C@@H](CC(=O)O)C(=O)N[C@H](C(=O)N[C@@H](Cc1cnc[nH]1)C(=O)N[C@@H](CC(N)=O)C(=O)N[C@@H](Cc1ccccc1)C(=O)O)C(C)C)C(C)C [hPTH (1-34), human Parathyroid hormone (1-34)]
half-life: 52 min
